Results published in paper PMC11870023, “A facile assay for zDHHC palmitoyl transferase activation elucidates effects of mutation and modification” (Journal of Lipid Research, 2025).

What was measured:
Assay in all cases: auto-S-palmitoylation of HEK293 membranes, SDS-PAGE fluorescence normalised to tag Western blot
human zDHHC7 [1] = biological target: T1, human zDHHC7 (Homo sapiens, UniProt Q9NXF8); format: cell-based; settings: pH 7.4, 37 °C, 2 min; labelled compound; covalent thioester at active-site Cys
T1 construct: full length, His6-Myc tag kept (pCEpuro-His6-Myc-1), HEK293 membrane fraction
T1 sequence (Q9NXF8 1-308): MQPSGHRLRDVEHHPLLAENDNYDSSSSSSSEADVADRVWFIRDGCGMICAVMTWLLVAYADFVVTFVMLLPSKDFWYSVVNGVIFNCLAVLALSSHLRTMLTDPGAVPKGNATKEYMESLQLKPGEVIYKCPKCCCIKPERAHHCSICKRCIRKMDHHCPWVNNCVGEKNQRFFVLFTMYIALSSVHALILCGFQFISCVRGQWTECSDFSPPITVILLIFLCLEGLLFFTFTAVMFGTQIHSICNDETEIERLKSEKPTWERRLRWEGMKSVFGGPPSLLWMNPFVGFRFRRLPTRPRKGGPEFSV

mouse zDHHC11 = system: T2, mouse zDHHC11; format: cell-based; settings: pH 7.4, 37 °C; labelled compound; covalent thioester at active-site Cys
T2 construct: full length, HA tag kept (pEF-Bos-HA), HEK293 membrane fraction; the source plasmid set's older numbering used DHHC-11 for Zdhhc23, so the gene is not certain

human zDHHC14 = biological target: T3, human zDHHC14 (Homo sapiens, UniProt Q8IZN3, C181Y); format: biochemical; settings: pH 7.4, 37 °C, 2 min; labelled compound; covalent thioester at active-site Cys
T3 construct: full length, His6-Myc tag kept (pCEpuro-His6-Myc-1), HEK293 membrane fraction
T3 sequence (Q8IZN3 1-488 C181Y): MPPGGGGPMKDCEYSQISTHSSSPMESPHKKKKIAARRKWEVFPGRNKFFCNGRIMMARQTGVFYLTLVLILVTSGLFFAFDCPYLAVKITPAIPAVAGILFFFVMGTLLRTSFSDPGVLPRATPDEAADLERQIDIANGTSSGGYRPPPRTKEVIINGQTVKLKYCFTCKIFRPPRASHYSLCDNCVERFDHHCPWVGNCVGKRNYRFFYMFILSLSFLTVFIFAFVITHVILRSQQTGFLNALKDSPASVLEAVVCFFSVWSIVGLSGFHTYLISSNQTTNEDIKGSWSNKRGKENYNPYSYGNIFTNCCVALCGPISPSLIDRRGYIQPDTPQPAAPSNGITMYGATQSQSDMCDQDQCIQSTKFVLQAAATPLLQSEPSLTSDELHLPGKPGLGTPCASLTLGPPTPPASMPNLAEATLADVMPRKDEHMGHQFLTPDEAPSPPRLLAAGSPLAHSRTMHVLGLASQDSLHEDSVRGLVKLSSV

human zDHHC7 [2] = biological target: T1, human zDHHC7; format: cell-based; settings: pH 7.4, 37 °C, 2 min; labelled compound; covalent thioester at active-site Cys; remark: listed apart in the source
Source text: auto-S-palmitoylation of HEK293 membranes, SDS-PAGE fluorescence normalised to tag Western blot on human zDHHC7 | N44D mutation within the N-terminal cytoplasmic tail of zDHHC7 (Fig. 4A) had no effect

Km (human zDHHC7 [1]): 3.4 ± 0.57 µM
Km (human zDHHC7 [2]): 2.85 ± 0.72 µM
SMILES: CC(C)(COP(=O)(O)OP(=O)(O)OC[C@H]1O[C@@H](n2cnc3c(N)ncnc32)[C@H](O)[C@@H]1OP(=O)(O)O)[C@@H](O)C(=O)NCCC(=O)NCCSC(=O)CCCCCCCCCCCCCCCNc1ccc([N+](=O)[O-])c2nonc12 [NBD-palmitoyl-CoA, N-[(7-nitro-2-1,3-benzoxadiazol-4-yl)-methyl]amino palmitoyl]
Km (mouse zDHHC11): 0.89 ± 0.23 µM
auto-S-palmitoylation of HEK293 membranes, SDS-PAGE fluorescence normalised to t (human zDHHC14): C→Y mutation of Cys181 within the second zinc finger domain (Fig. 4A) eliminated auto-S-palmitoylation
